Measured values: PMC12881670, “Investigation into ligand selectivity and bias at the formyl peptide receptor family” (The Journal of Pharmacology and Experimental Therapeutics, 2025)
Each block holds one molecule with its values, some of them ahead of it. Where a SMILES comes first, the peptide text is derived from it. The star is where a group is joined. Palmitoyl = CCCCCCCCCCCCCCCC(=O)*

Legend:
Hs_FPR2 [1] = target: T1, Hs_FPR2 (Homo sapiens, UniProt P25090); experiment: Competition binding of fluorescent WKYMVm, flow cytometry
T1 construct: expressed in transfected cells
T1 sequence (P25090 1-351): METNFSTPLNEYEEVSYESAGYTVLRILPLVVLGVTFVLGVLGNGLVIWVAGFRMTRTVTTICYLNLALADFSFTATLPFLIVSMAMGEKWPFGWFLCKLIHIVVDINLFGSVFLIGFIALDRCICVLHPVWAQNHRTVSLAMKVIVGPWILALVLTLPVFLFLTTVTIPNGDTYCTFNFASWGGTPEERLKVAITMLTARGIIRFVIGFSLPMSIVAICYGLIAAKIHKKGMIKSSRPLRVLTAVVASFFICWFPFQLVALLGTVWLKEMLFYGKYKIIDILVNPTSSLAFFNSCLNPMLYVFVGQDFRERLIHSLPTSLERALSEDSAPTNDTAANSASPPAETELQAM
Method: (§1) Mean cell fluorescence was then measured for 5000 cells by flow cytometry using either a BD FACScalibur or BD Attune.
(§2) All data were analyzed using GraphPad Prism using the nonlinear regression log(agonist) versus response (3 parameters) function for all assays, except binding, which was analyzed using the One site-FitlogIC50 function. Bias calculations were carried out following IUPHAR guidelines as described,[27]^,[37] and data were presented as the Δ Activity ratio (Log[EmaxB/EC50B])-(Log[EmaxA/EC50A]).

Mm_Fpr2 [2] = target: T2, Mm_Fpr2 (Mus musculus, UniProt O88536); experiment: as above; details: for Max Comp (%): maximum proportion of competition with 10 nM K(5/6-FAM)-WKYMVm
T2 construct: expressed in transfected cells
T2 sequence (O88536 1-351): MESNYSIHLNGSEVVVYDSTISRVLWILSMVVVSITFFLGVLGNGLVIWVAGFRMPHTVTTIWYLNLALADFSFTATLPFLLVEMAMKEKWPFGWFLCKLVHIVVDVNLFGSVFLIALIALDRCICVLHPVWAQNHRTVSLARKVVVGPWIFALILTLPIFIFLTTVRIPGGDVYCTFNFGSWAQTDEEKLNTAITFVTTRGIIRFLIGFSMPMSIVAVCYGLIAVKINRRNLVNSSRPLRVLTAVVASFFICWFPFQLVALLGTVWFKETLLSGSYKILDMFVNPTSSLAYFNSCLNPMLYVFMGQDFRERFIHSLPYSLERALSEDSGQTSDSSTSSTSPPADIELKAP
Method: as §1, §2

Hs_FPR2 [3] = target: T1, Hs_FPR2; experiment: BRET receptor-RLuc8 interaction with Venus-mGsi; assay type: cell-based
Method: (§3) BRET1 assays to measure FPR interaction with Venus-mGsi and Arrestin 3-yellow fluorescent protein (YFP) were performed as previously described.[31]^,[32] Briefly, all FPRs C-terminally fused to Renilla Luciferase (donor, RLuc8) were transiently transfected along with either Venus-mGsi or YFP-Arrestin 3 (acceptor) at a ratio of 1:4. 24 hours post transfection, cells were replated into white-walled, 96-well plates and cultured for a further 24–48 hours. On the day of experimentation, growth media was aspirated and replaced with 80 μl Hanks Buffered Saline Solution and equilibrated for 30 minutes. Coelenterazine h was added to each well to a final concentration of 5 μM for 5 minutes before the addition of each compound, and the plate was incubated for a further 10 minutes at 37 °C before being read on a ClarioStar Plus, with luminescence measured at 480/20 nm (donor) and 530/20 (acceptor). The BRET ratio (acceptor/donor) was determined, and the background (untreated) subtracted to give the N-BRET value.
as §2

Mm_Fpr2 [4] = target: T2, Mm_Fpr2; experiment: BRET receptor-RLuc8 interaction with Venus-mGsi; assay type: cell-based
Method: as §3, §2

Hs_FPR2 [5] = target: T1, Hs_FPR2; experiment: BRET receptor-RLuc8 interaction with Arrestin 3-YFP; assay type: cell-based
Method: as §3, §2

Mm_Fpr2 [6] = target: T2, Mm_Fpr2; experiment: as above; assay type: cell-based
Method: as §3, §2

Mm_Fpr2 [7] = target: T2, Mm_Fpr2; experiment: Internalization of FLAG-tagged receptors by flow cytometry; assay type: cell-based; design: Emax: dose or concentration left out as unconfirmed
Method: (§4) Internalization of FPRs was measured by flow cytometry.[30] Briefly, cells were incubated with Alexa Fluor 657 conjugated M1 antiflag antibody (Sigma-Aldrich Cat# F3040, RRID:AB_439712) for 30 minutes at 37 °C to label surface receptors. Cells were then incubated with the indicated concentration of ligand before washing in PBS/0.04% EDTA to remove any remaining surface antibody. Remaining fluorescence was then measured using flow cytometry on either a BD FACScalibur or Attune, recording 5000 gated events. […] As a control, some samples were left untreated, and “strip only” was measured as a readout of constitutive endocytosis, and this value was subtracted from the data. Vehicle control (0.1% DMSO) had no effect on internalization of receptors.
as §2

Hs_FPR2 [8] = target: T1, Hs_FPR2; experiment: ERK1/2 phosphorylation by Western blotting; assay type: cell-based
Method: (§5) ERK phosphorylation was detected by Western blotting as previously described.[30] Briefly, HEK293 cells stably expressing FLAG-tagged FPRs were plated into 12-well culture plates until 90% confluent. On the day of the experiment, culture media was replaced with serum-free Dulbecco’s modified Eagle’s medium and incubated for 2 hours before stimulation with the indicated compounds. After 7 minutes, the media was removed and stimulation terminated by the addition of 100 μl sample buffer (0.5% SDS, Tris (pH 6.8), glycerol, at >90 °C).
as §2

Mm_Fpr2 [9] = target: T2, Mm_Fpr2; experiment: ERK1/2 phosphorylation by Western blotting; assay type: cell-based
Method: as §5, §2

Mm_Fpr1 [10] = target: T3, Mm_Fpr1 (Mus musculus, UniProt P33766); experiment: Competition binding of fluorescent WKYMVm, flow cytometry; details: mean, ND = no competition observed
T3 construct: expressed in transfected cells
T3 sequence (P33766 1-364): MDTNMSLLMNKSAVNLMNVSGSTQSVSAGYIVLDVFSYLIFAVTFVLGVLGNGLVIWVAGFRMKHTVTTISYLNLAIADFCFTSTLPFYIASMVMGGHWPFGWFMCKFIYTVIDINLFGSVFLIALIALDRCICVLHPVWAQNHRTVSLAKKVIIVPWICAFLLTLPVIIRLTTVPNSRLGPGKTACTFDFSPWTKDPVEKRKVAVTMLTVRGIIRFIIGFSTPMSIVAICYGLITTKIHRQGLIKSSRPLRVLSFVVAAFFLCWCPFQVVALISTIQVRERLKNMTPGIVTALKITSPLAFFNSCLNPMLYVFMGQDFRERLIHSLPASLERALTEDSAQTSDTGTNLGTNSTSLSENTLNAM
Method: as §1, §2

Mm_Fpr1 [11] = target: T3, Mm_Fpr1; experiment: BRET receptor-RLuc8 interaction with Venus-mGsi; assay type: cell-based; details: mGsi BRET, mean, ND = no interaction detected
Method: as §3, §2

Mm_Fpr1 [12] = target: T3, Mm_Fpr1; experiment: BRET receptor-RLuc8 interaction with Arrestin 3-YFP; assay type: cell-based; details: Arrestin 3 BRET, % of response to 1 μM WKYMVm; mean; ND = no interaction detected
Method: as §3, §2

[13] = system: formyl peptide receptor family (Hs_FPR1, Hs_FPR2, Mm_Fpr1, Mm_Fpr2); experiment: Summary of main findings: receptor subtype selectivity and ligand bias across all readouts; design: species or system human and mouse
Description: To determine ligand bias, a reference ligand is required, that is, “balanced” for the pathways tested.[37] […] We then used measurements of the activity ratio (Log (Emax/EC50)) for each receptor, ligand, and pathway in an attempt to observe any ligand bias (Fig. 6).

Mm_Fpr1 [14] = target: T3, Mm_Fpr1; experiment: Internalization of FLAG-tagged receptors by flow cytometry; assay type: cell-based; design: Emax: dose or concentration left out as unconfirmed
Method: as §4, §2

Mm_Fpr1 [15] = target: T3, Mm_Fpr1; experiment: ERK1/2 phosphorylation by Western blotting; assay type: cell-based; details: mean, ND = no pERK signal detected
Method: as §5, §2

[16] = mean, ND = no competition observed
[17] = log of EC50, phosphorylation of ERK1/2, HEK293 stable cells, mean, ND = no pERK signal detected

IC50 (Hs_FPR2 [1]): 5.37 µM
Max Comp (%) (Hs_FPR2 [1]; maximum proportion of competition with 10 nM K(5/6-FAM)-WKYMVm, mean, ND = no competition observed): 100%
IC50 (Mm_Fpr2 [2]): 4.2 µM
Max Comp (%) (Mm_Fpr2 [2]; [16]): 100%
EC50 (Hs_FPR2 [3]): 0.166 µM
Emax (Hs_FPR2 [3]): 19.4%
Gi interaction, % of that seen with WKYMVm (Hs_FPR2 [3]; only detected at 1 and 10 μM): 20%
EC50 (Mm_Fpr2 [4]): 0.166 µM
Emax (Mm_Fpr2 [4]): 24.2%
Emax (Hs_FPR2 [5]): 25.5%
EC50 (Hs_FPR2 [5]; read-out: Log EC50 (converted)): 0.282 µM
EC50 (Mm_Fpr2 [6]): 0.263 µM
Emax (Mm_Fpr2 [6]): 33.4%
Emax (Mm_Fpr2 [7]): 12.3%
Emax (Hs_FPR2 [8]): 80.8%
EC50 (Hs_FPR2 [8]; [17]): 0.0337 µM
Emax (Mm_Fpr2 [9]): 141%
EC50 (Mm_Fpr2 [9]; [17]): 0.0533 µM
Structure (SMILES): CCCCCCCCCCCCCCCC(=O)N[C@@H](CCCCN)C(=O)N[C@H](C(=O)N[C@@H](Cc1c[nH]cn1)C(=O)N[C@@H](CCCCN)C(=O)N[C@@H](CCCCN)C(=O)NCC(=O)N[C@@H](CCSC)C(=O)N[C@H](C(=O)N[C@@H](CCCCN)C(=O)N[C@@H](CO)C(=O)O)[C@@H](C)CC)[C@@H](C)CC [F2Pal10] (Palmitoyl-KIHKKGMIKS-OH)

Log IC50 (M) (Mm_Fpr1 [10]; log of IC50, competition with 10 nM K(5/6-FAM)-WKYMVm, HEK293 stable cells, on ice 90 min): −5.926 M
Max Comp (%) (Mm_Fpr1 [10]; maximum proportion of competition with 10 nM K(5/6-FAM)-WKYMVm): 61.39%
Log IC50 (M) (Mm_Fpr2 [2]; log of IC50, competition with 10 nM K(5/6-FAM)-WKYMVm, HEK293 stable cells, on ice 90 min, mean, ND = no competition observed): −6.16 M
Max Comp (%) (Mm_Fpr2 [2]; [16]): 29.56%
Log EC50 (M) (Mm_Fpr1 [11]; log of EC50, HEK293 transient, 10 min): −7.09 M
Emax (%) (Mm_Fpr1 [11]; % of response to 1 μM WKYMVm): 12.62%
Log EC50 (M) (Mm_Fpr2 [4]; log of EC50, mGsi BRET, HEK293 transient, 10 min, mean, ND = no interaction detected): −6.19 M
Emax (%) (Mm_Fpr2 [4]; mGsi BRET, % of response to 1 μM WKYMVm, mean, ND = no interaction detected): 73.16%
Emax (%) (Mm_Fpr1 [12]): 39.42%
Emax (%) (Mm_Fpr2 [6]; Arrestin 3 BRET, % of response to 1 μM WKYMVm, mean, ND = no interaction detected): 73.06%
Log EC50 (M) (Mm_Fpr2 [6]; log of EC50, Arrestin 3 BRET, HEK293 transient, 10 min, mean, ND = no interaction detected): −6.20 M
Bias ([13]; summary grade of ligand bias relative to WKYMVm, key not given): No
Notes ([13]; summary of main findings, in words): Partial/weak only
Emax (%), internalization, Mean (Mm_Fpr1 [14]; % of internalization to WKYMVm (1 mM in legend, 1 μM in text), Mm_Fpr1, 30 minutes, ND denotes no internalization measured): 95.95%
Log EC50 (M), internalization, Mean (Mm_Fpr1 [14]; Log EC50, HEK293 stably expressing FLAG-Mm_Fpr1, ligand 30 minutes, ND denotes no internalization measured): −6.155 M
agonist-induced internalization (words) (Mm_Fpr1 [14]; Mm_Fpr1, 30 min, relative to 1 μM WKYMVm): partial agonists
Emax (%), internalization, Mean (Mm_Fpr2 [7]; % of internalization to WKYMVm (1 mM in legend, 1 μM in text), Mm_Fpr2, 30 minutes): 42.90%
Log EC50 (M), internalization, Mean (Mm_Fpr2 [7]; Log EC50, HEK293 stably expressing FLAG-Mm_Fpr2, ligand 30 minutes): −7.063 M
agonist-induced internalization (words) (Mm_Fpr2 [7]; Mm_Fpr2, 30 min, relative to 1 μM WKYMVm): partial agonists
Log EC50 (M) (Mm_Fpr1 [15]; log of EC50, phosphorylation of ERK1/2, HEK293 stable cells): −7.589 M
Emax (%) (Mm_Fpr1 [15]; phospho-ERK, % of 1 μM WKYMVm): 78.28%
Log EC50 (M) (Mm_Fpr2 [9]; [17]): −6.775 M
Emax (%) (Mm_Fpr2 [9]; phospho-ERK, % of 1 μM WKYMVm, mean, ND = no pERK signal detected): 147.8%
Structure (SMILES): CC(C)c1c(NC(=O)Nc2ccc(Cl)cc2)c(=O)n(-c2ccccc2)n1C [TC-FPR43]
